Source: US4507318A, “1-Aryl 2-aminomethyl cyclopropane carboxylates (Z) as drugs in the treatment of pain” (Pierre Fabre S.A., priority 1981, dated 1985)
Where a name gives a salt, the structure may show the parent alone. Read-outs that look alike come from different tables or passages of the source.

Legend:
Solubility in water = format: physicochemical
mice [1] = test: Writhing Syndrome (P.B.Q.), analgesic activity after I.P. p-benzoquinone; format: in vivo; settings: Mus musculus, po, P.O., read-out: Writhing Syndrome PBQ-ED50 (P.O.)
Description: (a) Writhing Syndrome (P.B.Q.)
After I.P. administration of p-benzoquinone to mice, the products were tested by the method of R. OKUN, S. C. LIDDON and L. LASAGNA, J. Pharmacol. Exptl. Therap., 1963, 139, 107. The results are expressed in ED50 in Table 1.

[2] = Toxicity study (ED50 orally and intraperitoneally, method of Miller and Tainter); settings: in vivo
Description: The most interesting compounds of the present invention were subjected to toxicity studies.
The ED50 was determined orally and intraperitoneally and calculated by the method of MILLER and TAINTER (Proc. Soc. Exper. […]. 1944, 57, 261).

mice [3] = test: Hot Plate, analgesic activity; format: in vivo
Description: The products were tested subcutaneously in mice (50 mg/kg) by the method of N. B. EDDY and D. LEIMBACH, J. Pharm. Exptl. Therap., 1953, 107, 385.

Solubility in DMA = format: physicochemical
[4] = ip, intraperitoneally, read-out: ED50 intraperitoneally
[5] = po, per os, read-out: ED50 per os

## CCOC(=O)[C@]1(c2ccccc2)C[C@@H]1CN(CCO)CCO (relative stereo) [Example 7, Maleate of 1-phenyl 1-ethoxycarbonyl 2-di(2'-hydroxyethyl)amino-methyl cyclopropane (Z)]
Solubility in water
  solubility: 500 mg/mL

## COC(=O)[C@]1(c2ccc(N)cc2)C[C@@H]1CN(C)C (relative stereo) [Example 46]
Mice [1]
  ED50: 34 mg/kg
[2]; [4]
  LD50: 100 mg/kg
[2]; [5]
  LD50: 420 mg/kg
Mice [3]; 50 mg/kg SC, mice
  Hot Plate reaction time: 25 s

## CCOC(=O)[C@]1(c2ccccc2)C[C@@H]1CN(CC)CC (relative stereo) [Example 4, Hydrochloride of 1-phenyl 1-ethoxycarbonyl-2-diethyl amino-methyl cyclopropane (Z)]
Solubility in water
  solubility: 500 mg/mL

## CCOC(=O)[C@]1(c2ccccc2)C[C@@H]1CN(C(C)C)C(C)C (relative stereo) [Example 16, Maleate of 1-phenyl 1-ethoxycarbonyl 2-diisopropyl aminomethyl cyclopropane (Z)]
Solubility in water
  solubility: 100 mg/mL

## CCC(=O)O[C@](Cc1ccccc1)(c1ccccc1)[C@H](C)CN(C)C [Dextropropoxyphene, reference compound]
Mice [1]
  ED50: 30 mg/kg
Mice [3]; mouse, in vivo
  Hot Plate reaction time: 30 s

## CCOC(=O)[C@]1(c2ccccc2)C[C@@H]1CN1CCC(c2ccccc2)CC1 (relative stereo) [Example 20, Hydrochloride of 1-phenyl 1-ethoxycarbonyl 2-(4'-phenylpiperidino)methyl cyclopropane (Z)]
Solubility in DMA
  Solubility in DMA: 50%
Solubility in water
  Solubility in water (in words): insoluble in water

## CCOC(=O)[C@]1(c2ccc(Cl)cc2)C[C@@H]1CN(C)C (relative stereo) [Example 41, 1-(4'-chlorophenyl) 1-ethoxycarbonyl 2-dimethylaminomethyl cyclopropane (Z) hydrochloride]
Mice [1]
  ED50: 19 mg/kg
[2]; [4]
  LD50: 120 mg/kg
[2]; [5]
  LD50: 400 mg/kg
Mice [3]; 50 mg/kg SC, mice
  Hot Plate reaction time: 39 s

## C#CC(C)(C)NC[C@H]1C[C@]1(C(=O)OCC)c1ccccc1 (relative stereo) [Example 12, Hydrochloride of 1-phenyl 1-ethoxycarbonyl-2-(1'-1'-dimethyl-2'-propynylaminomethyl)cyclopropane (Z)]
Solubility in water
  solubility: 30 mg/mL

## CCOC(=O)[C@]1(c2ccccc2)C[C@@H]1CNC(C)(C)C (relative stereo) [Example 6, Hydrochloride of 1-phenyl 1-ethoxycarbonyl-2-tertbutylamino-methyl cyclopropane (Z)]
Solubility in water
  solubility: 170 mg/mL

## CCOC(=O)[C@]1(c2ccccc2)C[C@@H]1CN(C)CCO (relative stereo) [Example 10, Fumarate of 1-phenyl 1-ethoxycarbonyl 2-N-(2'-hydroxyethyl)N-methyl amino-methyl cyclopropane (Z)]
Solubility in water
  solubility: 80 mg/mL

## CCOC(=O)[C@]1(c2ccccc2)C[C@@H]1CNC(C)C (relative stereo) [Example 15, Hydrochloride of 1-phenyl 1-ethoxycarbonyl 2-isopropyl aminomethyl cyclopropane (Z)]
Solubility in water
  solubility: 500 mg/mL

## CCOC(=O)[C@]1(c2ccccc2)C[C@@H]1CN(C)CC (relative stereo) [Example 17, Fumarate of 1-phenyl 1-ethoxycarbonyl 2-(N-methyl-N-ethyl-amino)methyl cyclopropane (Z)]
Solubility in water
  solubility: 500 mg/mL

## CCCOC(=O)[C@]1(c2ccccc2)C[C@@H]1CN(C)C (relative stereo) [Example 35, Fumarate of 1-phenyl 1-propyloxycarbonyl 2-dimethyl aminomethyl cyclopropane (Z)]
Solubility in water
  solubility: 150 mg/mL

## CCOC(=O)[C@]1(c2ccccc2)C[C@@H]1CN(C)CCc1ccccc1 (relative stereo) [Example 30]
Mice [1]
  ED50: 80 mg/kg
[2]; [4]
  LD50: 110 mg/kg
[2]; [5]
  LD50: 1000 mg/kg
Mice [3]; 50 mg/kg SC, mice
  Hot Plate reaction time: 20 s

## CCOC(=O)[C@]1(c2ccccc2)C[C@@H]1CNCCc1ccccc1 (relative stereo) [Example 2, Hydrochloride of 1-phenyl-1-ethoxycarbonyl-2-(2-phenylethyl)amino-methyl cyclopropane (Z)]
Solubility in water
  solubility: 500 mg/mL

## CCOC(=O)[C@]1(c2ccc(Cl)c(Cl)c2)C[C@@H]1CN(C)C (relative stereo) [Example 45, Hydrochloride of 1-(3,4 dichlorophenyl) 1-ethoxycarbonyl 2-dimethylaminomethyl cyclopropane (Z)]
Mice [1]
  ED50: 60 mg/kg
[2]; [4]
  LD50: 170 mg/kg
[2]; [5]
  LD50: 550 mg/kg
Mice [3]; 50 mg/kg SC, mice
  Hot Plate reaction time: 26 s

## CCOCCNC[C@H]1C[C@]1(C(=O)OCC)c1ccccc1 (relative stereo) [Example 13, Hydrochloride of 1-phenyl 1-ethoxycarbonyl 2-(2'-ethoxyethylaminomethyl)cyclopropane (Z)]
Solubility in water
  solubility: 500 mg/mL

## CCOC(=O)[C@]1(c2ccccc2)C[C@@H]1CN(Cc1ccccc1)Cc1ccccc1 (relative stereo) [Example 11, Hydrochloride of 1-phenyl-1-ethoxycarbonyl 2-dibenzyl amino-methyl cyclopropane (Z)]
Solubility in DMA
  Solubility in DMA: 2%
Solubility in water
  Solubility in water (in words): insoluble in water

## CCOC(=O)[C@]1(c2ccccc2)C[C@@H]1CN1CCCC1 (relative stereo) [Example 1, 1-phenyl 1-ethoxycarbonyl-2-pyrrolidinomethyl cyclopropane hydrochloride (Z)]
Solubility in water
  solubility: 500 mg/mL

## CCOC(=O)[C@]1(c2ccccc2)C[C@@H]1CN(C)CCN(C)C (relative stereo) [Example 21, Dihydrochloride of 1-phenyl 1-ethoxycarbonyl-2-(N-methyl N-(2'-dimethylamino)ethyl)aminomethyl cyclopropane (Z)]
Solubility in water
  solubility: 500 mg/mL

## CCOC(=O)[C@]1(c2cccc(Cl)c2)C[C@@H]1CN(C)C (relative stereo) [Example 44, Maleate of 1-(m-chlorophenyl) 1-ethoxycarbonyl 2-dimethylaminomethyl cyclopropane (Z)]
Mice [1]
  ED50: 30 mg/kg
[2]; [4]
  LD50: 170 mg/kg
[2]; [5]
  LD50: 760 mg/kg
Mice [3]; 50 mg/kg SC, mice
  Hot Plate reaction time: 28 s

## CC(C)OC(=O)[C@]1(c2ccccc2)C[C@@H]1CN(C)C (relative stereo) [Example 36, Hydrochloride of 1-phenyl 1-isopropyloxy-carbonyl 2-dimethylamino methyl cyclopropane (Z)]
Mice [1]
  ED50: 17 mg/kg
[2]; [4]
  LD50: 130 mg/kg
[2]; [5]
  LD50: 400 mg/kg
Mice [3]; 50 mg/kg SC, mice
  Hot Plate reaction time: 40 s

## CCOC(=O)[C@]1(c2ccccc2)C[C@@H]1CN1CCN(c2ccccc2)CC1 (relative stereo) [Example 8, Dihydrochloride of 1-phenyl 1-ethoxycarbonyl 2-(4'-phenyl-piperazinomethyl)cyclopropane (Z)]
Solubility in water
  solubility: 5 mg/mL

## CCOC(=O)[C@]1(c2ccccc2)C[C@@H]1CN1CCOCC1 (relative stereo) [Example 9, Hydrochloride of 1-phenyl 1-ethoxycarbonyl 2-morpholino methyl cyclopropane (Z)]
Solubility in water
  solubility: 500 mg/mL

## CCOC(=O)[C@]1(c2ccccc2)C[C@@H]1CNC (relative stereo) [Example 3, Hydrochloride of 1-phenyl 1-ethoxycarbonyl-2-methyl amino-methyl cyclopropane (Z)]
Solubility in water
  solubility: 500 mg/mL

## COC(=O)[C@]1(c2ccccc2)C[C@@H]1CN(C)C (relative stereo) [Example 34, Hydrochloride of 1-phenyl 1-methoxycarbonyl 2-dimethyl-amino-methyl cyclopropane (Z)]
Solubility in water
  solubility: 500 mg/mL

## CCOC(=O)[C@]1(c2ccccc2)C[C@@H]1CNCc1ccccc1 (relative stereo) [Example 14, Hydrochloride of 1-phenyl-1-ethoxycarbonyl 2-benzyl amino methyl cyclopropane (Z)]
Solubility in water
  solubility: 10 mg/mL

## CCCCCN(C)C[C@H]1C[C@]1(C(=O)OCC)c1ccccc1 (relative stereo) [Example 18, Fumarate of 1-phenyl 1-ethoxycarbonyl 2-(N-methyl-N-pentylamino)methyl cyclopropane (Z)]
Solubility in water
  solubility: 30 mg/mL

## CCOC(=O)[C@]1(c2ccccc2)C[C@@H]1CN(C)Cc1ccccc1 (relative stereo) [Example 5, Hydrochloride of 1-phenyl 1-ethoxycarbonyl-2-(benzylmethylaminomethyl)cyclopropane (Z)]
Solubility in water
  solubility: 100 mg/mL

## CCOC(=O)[C@]1(c2ccc(OC)cc2)C[C@@H]1CN(C)C (relative stereo) [Example 48, Hydrochloride of 1-(p-methoxyphenyl) 1-ethoxycarbonyl 2-dimethylaminomethyl cyclopropane (Z)]
Mice [1]
  ED50: 95 mg/kg
[2]; [4]
  LD50: 110 mg/kg
[2]; [5]
  LD50: 420 mg/kg
Mice [3]; 50 mg/kg SC, mice
  Hot Plate reaction time: 29 s

## CN(C)C[C@H]1C[C@]1(C(=O)OCc1ccccc1)c1ccccc1 (relative stereo) [Example 37, Hydrochloride of 1-phenyl 1-benzyloxy carbonyl-2-dimethyl aminomethyl cyclopropane (Z)]
Mice [1]
  ED50: 92 mg/kg
[2]; [4]
  LD50: 130 mg/kg
[2]; [5]
  LD50: 1000 mg/kg
Mice [3]; 50 mg/kg SC, mice
  Hot Plate reaction time: 30 s

## COC(=O)[C@]1(c2ccc([N+](=O)[O-])cc2)C[C@@H]1CN(C)C (relative stereo) [Example 47, Hydrochloride of 1-(p-nitrophenyl) 1-methoxycarbonyl 2-dimethylaminomethyl cyclopropane (Z)]
Mice [1]
  ED50: 21 mg/kg
[2]; [4]
  LD50: 250 mg/kg
[2]; [5]
  LD50: 1000 mg/kg
Mice [3]; 50 mg/kg SC, mice
  Hot Plate reaction time: 20 s
